{"source": "patent US20190216751A1", "about": "“Compositions and Methods for the Treatment and Prevention of Cancer” (California State University Northridge, priority 2017, published 2019)", "key": {"[1]": {"test_system": "E-cadherin in 4T1 cells", "experiment": "Western blot E-cadherin, TGFβ-induced EMT", "type": "cell-based, mouse", "details": "10 μM each drug, re-treated with TGFβ 2.5 ng/mL at 48 hours, 96-hour time point", "description": "Next, the inventors investigated whether blockade of HDAC6 and DHPS activity could further suppress TGFβ-induced EMT either independently or simultaneously. To test this, 4T1 cells were treated with either TubA at 10 μM, GC7 at 10 μM or both for 48 hours. At this time point, protein lysates were collected as well as phase-contrast images (FIGS. 6B and 6C). At that same time point, the media was changed and the cells were re-treated with the same drugs at the same concentrations; however, this time with the addition of TGFβ at 2.5 ng/mL. The inventors collected protein lysates and phase-contrast images just one day post TGFβ treatment, calling this the 72-hour time point (FIGS. 6B and 6C). In addition, the inventors collected mRNA, protein lysates, phase-contrast and immunofluorescences images two days post TGFβ treatment, calling this the 96-hour time point (FIGS. 6A, 6B, 6C and 6D).\nCell lines were plated in a 6 well plate at 1e5 cells/mL and left to attach overnight. Cells were then treated if necessary then lysed using Radioimmunoprecipitation assay (RIPA) buffer containing phosphatase and protease inhibitors and left to rotate at 4° C. for at least 3 hours. Lysates were then cleared by centrifugation at 12,000 RPM for 10 minutes at 4° C. Protein concentrations were determined using Bradford Assay. […] Band intensity graphs were quantified using Fiji software after image thresholding."}, "[2]": {"test_system": "eIF5A localization in 4T1 cells", "experiment": "Immunofluorescence, subcellular localization of total eIF5A", "type": "cell-based, mouse", "details": "10 μM each drug, 48 hours", "from_the_text": "The next research questions revolved around asking how TGFβ is regulating eIF5A and what other proteins might be involved to completely block TGFβ-induced EMT. This led to histone deacetylase enzyme 6 (HDAC6). HDAC6 has been previously reported to be responsible for the deacetylation of eIF5A in the nucleus in order to make it readily available for hypusination and later transport out in the cytoplasm for functioning as a translation factor. To determine if it were possible to further increase the efficacy or potency of GC7, the inventors co-treated with Tubastatin A (an HDAC6 inhibitor) in 4T1 and 67NR cells as well as MDA-MB-468 cells which initially were not very sensitive to GC7. Triple negative human breast cancer cell line, BT547, was also used to see if another cell line representative of this breast cancer subtype was sensitive towards DHPS and HDAC6 inhibition. (FIGS. 5A and 5B). Here, are shown cell viability graphs for these four cell lines pretreated with GC7 at 1 μM and after 12 hours were exposed to various concentrations of Tubastatin A (TubA) ranging from 0.1 nM to 100 μM. […] MDA-MB-468 and BT549 cells remained to be insensitive to TubA with or without GC7 pretreatment (FIG. 5A). […]"}, "[3]": {"test_system": "breast cancer cells", "experiment": "GC7 potency after induction of EMT by TGFβ", "type": "cell-based", "details": "induction of EMT by TGFβ treatment"}}, "data": [{"smiles": "N=C(N)NCCCCCCCN.O=S(=O)(O)O", "note": "[GC7, N1-Guanyl-1,7-diaminoheptane]", "values": [{"measurement": "TGFβ-induced EMT, E-cadherin protein expression", "setting": "[1]", "value": "dramatically increased"}, {"measurement": "localization of total eIF5A", "setting": "[2]", "value": "predominantly cytoplasmic"}, {"measurement": "GC7 potency after TGFβ-induced EMT", "setting": "[3]", "value": "increases GC7 potency"}]}]}
